pIC50: −log10 of the molar value.
Assays:
[1] = target: Phosphatidylinositol 4,5-bisphosphate 3-kinase catalytic subunit beta isoform (Homo sapiens, UniProt P42338); assay: Inhibition of PI3Kbeta (unknown origin) using PIP2 as substrate preincubated for 1 hr followed by substrate addition and measured after 60 mins in presence of ATP by ADP-glo assay
[2] = species: Homo sapiens; assay: Selectivity ratio of IC50 for inhibition of PI3Kalpha (unknown origin) to IC50 for inhibition of PI3Kgamma (unknown origin)
[3] = Hepatic clearance in Sprague-Dawley rat by LC-MS/MS analysis; assay type: ADME; settings: in vivo
[4] = target: T1, Phosphatidylinositol 4,5-bisphosphate 3-kinase catalytic subunit gamma isoform (Homo sapiens, UniProt P48736); assay: Inhibition of PI3Kgamma (unknown origin) in […] stimulated human THP-1 cells assessed as reduction in Akt phosphorylation level at Ser473 residue preincubated for 60 mins followed by rhMCP-1 stimulation and measured after 2 mins by AlphaLisa assay; assay type: cell-based
T1 sequence (P48736 whole entry, canonical isoform): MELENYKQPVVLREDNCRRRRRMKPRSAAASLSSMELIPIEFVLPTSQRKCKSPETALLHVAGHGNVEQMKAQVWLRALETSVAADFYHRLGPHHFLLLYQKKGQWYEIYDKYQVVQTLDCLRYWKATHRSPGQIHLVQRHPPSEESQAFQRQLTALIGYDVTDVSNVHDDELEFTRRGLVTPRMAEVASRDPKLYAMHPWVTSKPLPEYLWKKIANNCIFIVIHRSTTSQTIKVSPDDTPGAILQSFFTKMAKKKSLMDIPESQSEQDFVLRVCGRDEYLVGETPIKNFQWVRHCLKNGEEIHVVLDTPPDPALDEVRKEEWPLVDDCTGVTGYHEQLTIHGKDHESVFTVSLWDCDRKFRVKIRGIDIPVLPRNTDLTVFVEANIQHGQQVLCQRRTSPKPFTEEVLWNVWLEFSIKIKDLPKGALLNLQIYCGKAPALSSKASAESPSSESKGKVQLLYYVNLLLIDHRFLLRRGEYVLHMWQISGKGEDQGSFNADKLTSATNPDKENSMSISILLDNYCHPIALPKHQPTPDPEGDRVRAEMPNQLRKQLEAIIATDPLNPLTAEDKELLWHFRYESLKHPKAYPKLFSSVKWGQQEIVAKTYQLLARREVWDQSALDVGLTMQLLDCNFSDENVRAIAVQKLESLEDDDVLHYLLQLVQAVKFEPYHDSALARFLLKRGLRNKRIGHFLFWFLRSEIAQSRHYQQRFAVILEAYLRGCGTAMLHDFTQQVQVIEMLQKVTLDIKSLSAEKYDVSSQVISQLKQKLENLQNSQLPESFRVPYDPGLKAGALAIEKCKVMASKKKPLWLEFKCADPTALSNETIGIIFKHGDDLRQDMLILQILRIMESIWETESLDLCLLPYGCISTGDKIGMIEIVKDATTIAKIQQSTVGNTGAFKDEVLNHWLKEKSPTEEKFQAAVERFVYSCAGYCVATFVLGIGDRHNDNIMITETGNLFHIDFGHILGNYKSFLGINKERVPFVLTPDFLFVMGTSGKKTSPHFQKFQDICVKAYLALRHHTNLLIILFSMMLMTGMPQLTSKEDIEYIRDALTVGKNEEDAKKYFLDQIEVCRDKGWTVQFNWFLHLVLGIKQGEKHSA

[5] = target: T2, Phosphatidylinositol 4,5-bisphosphate 3-kinase catalytic subunit delta isoform (Homo sapiens, UniProt O00329); assay: Inhibition of PI3Kdelta (unknown origin) using PIP2 as substrate preincubated for 1 hr followed by substrate addition and measured after 60 mins in presence of ATP by ADP-glo assay
T2 sequence (O00329 whole entry): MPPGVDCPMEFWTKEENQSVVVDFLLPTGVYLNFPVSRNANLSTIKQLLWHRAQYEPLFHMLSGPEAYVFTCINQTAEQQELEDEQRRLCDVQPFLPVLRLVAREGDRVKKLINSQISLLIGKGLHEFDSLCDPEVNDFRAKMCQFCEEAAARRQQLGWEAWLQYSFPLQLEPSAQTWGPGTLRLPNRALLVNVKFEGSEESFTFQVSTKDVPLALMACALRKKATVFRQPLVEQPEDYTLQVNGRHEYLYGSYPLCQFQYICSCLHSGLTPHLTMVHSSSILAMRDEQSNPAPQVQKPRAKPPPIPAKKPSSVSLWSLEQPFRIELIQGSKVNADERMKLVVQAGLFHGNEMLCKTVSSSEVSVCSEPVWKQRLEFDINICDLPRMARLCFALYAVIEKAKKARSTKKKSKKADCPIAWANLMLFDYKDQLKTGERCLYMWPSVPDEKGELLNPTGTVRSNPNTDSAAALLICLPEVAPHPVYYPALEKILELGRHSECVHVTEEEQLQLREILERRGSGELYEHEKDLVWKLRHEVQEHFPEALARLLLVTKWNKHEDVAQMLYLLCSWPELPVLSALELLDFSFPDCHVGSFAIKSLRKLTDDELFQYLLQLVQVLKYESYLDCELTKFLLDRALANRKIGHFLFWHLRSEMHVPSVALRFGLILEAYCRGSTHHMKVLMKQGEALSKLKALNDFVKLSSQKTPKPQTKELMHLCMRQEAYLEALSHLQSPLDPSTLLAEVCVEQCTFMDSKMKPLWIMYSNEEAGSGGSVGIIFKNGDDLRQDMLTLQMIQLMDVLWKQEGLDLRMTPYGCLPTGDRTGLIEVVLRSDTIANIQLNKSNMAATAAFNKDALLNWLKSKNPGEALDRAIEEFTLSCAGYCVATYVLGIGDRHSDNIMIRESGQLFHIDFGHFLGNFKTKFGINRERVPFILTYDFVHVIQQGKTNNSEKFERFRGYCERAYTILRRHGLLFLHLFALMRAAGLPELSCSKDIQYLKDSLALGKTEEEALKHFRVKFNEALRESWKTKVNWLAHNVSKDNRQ

[6] = Metabolic stability in human hepatocytes assessed as intrinsic clearance per 10^6 cells at 0.5 uM by LC-MS/MS analysis; assay type: ADME, cell-based, Hepatocyte; settings: read-out: CLH
[7] = target: CYP3A4 (Homo sapiens, UniProt P08684); assay: in vitro; settings: human liver microsomes, probe midazolam
CYP3A4, sequence (P08684 whole entry, canonical isoform): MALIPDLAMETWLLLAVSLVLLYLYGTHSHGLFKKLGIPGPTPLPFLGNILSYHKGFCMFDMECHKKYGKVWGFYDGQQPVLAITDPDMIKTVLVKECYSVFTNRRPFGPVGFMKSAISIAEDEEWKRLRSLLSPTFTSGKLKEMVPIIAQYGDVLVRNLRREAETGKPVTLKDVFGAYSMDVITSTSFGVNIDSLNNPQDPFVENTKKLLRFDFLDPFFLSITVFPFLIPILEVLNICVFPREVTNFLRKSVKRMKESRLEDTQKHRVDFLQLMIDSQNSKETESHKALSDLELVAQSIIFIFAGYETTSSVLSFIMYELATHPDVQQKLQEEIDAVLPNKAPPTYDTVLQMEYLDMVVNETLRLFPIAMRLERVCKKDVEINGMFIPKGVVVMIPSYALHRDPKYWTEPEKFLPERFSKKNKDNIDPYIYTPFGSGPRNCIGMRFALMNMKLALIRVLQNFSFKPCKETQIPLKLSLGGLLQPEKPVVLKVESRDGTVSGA
Description: Time dependent inhibition of CYP3A4 in human liver microsomes at 10 uM using midazolam as substrate preincubated for 30 mins in presence of NADPH by LC/MS/MS analysis relative to control

[8] = target: Phosphatidylinositol 4,5-bisphosphate 3-kinase catalytic subunit alpha isoform (Homo sapiens, UniProt P42336); assay: Inhibition of PI3Kalpha (unknown origin) using PIP2 as substrate preincubated for 1 hr followed by substrate addition and measured after 60 mins in presence of ATP by ADP-glo assay
Phosphatidylinositol 4,5-bisphosphate 3-kinase catalytic subunit alpha isoform, sequence (P42336 whole entry, canonical isoform): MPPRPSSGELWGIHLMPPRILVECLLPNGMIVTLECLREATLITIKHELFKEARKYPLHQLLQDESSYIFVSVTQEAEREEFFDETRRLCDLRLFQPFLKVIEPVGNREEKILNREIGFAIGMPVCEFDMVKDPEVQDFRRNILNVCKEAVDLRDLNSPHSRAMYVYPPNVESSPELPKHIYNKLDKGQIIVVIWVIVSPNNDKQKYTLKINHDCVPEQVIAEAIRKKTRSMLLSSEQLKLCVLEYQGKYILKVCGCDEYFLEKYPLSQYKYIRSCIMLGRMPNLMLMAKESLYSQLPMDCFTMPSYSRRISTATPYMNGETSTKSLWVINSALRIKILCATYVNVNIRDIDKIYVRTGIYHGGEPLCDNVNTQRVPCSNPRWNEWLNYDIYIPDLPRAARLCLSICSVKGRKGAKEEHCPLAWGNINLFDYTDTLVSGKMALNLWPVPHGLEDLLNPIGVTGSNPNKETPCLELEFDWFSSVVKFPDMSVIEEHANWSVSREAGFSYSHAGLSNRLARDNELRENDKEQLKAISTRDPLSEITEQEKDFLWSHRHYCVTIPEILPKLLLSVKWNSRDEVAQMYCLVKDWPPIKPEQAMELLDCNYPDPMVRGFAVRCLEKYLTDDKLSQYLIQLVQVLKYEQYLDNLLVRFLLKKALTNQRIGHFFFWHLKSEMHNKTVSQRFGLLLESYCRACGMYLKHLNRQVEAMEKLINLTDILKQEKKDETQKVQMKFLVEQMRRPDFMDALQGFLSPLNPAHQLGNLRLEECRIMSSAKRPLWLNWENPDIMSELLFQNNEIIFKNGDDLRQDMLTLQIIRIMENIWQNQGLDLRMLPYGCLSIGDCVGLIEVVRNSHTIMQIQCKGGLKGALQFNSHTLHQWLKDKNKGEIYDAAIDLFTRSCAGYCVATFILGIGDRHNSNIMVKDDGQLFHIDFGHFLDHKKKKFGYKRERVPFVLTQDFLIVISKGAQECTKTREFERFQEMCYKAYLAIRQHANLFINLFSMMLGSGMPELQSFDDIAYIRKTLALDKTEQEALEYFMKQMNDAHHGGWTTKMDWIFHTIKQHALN

[9] = target: T1, Phosphatidylinositol 4,5-bisphosphate 3-kinase catalytic subunit gamma isoform; assay: Inhibition of PI3Kgamma (unknown origin) using PIP2 as substrate preincubated for 1 hr followed by substrate addition and measured after 60 mins in presence of ATP by ADP-glo assay
[10] = species: Homo sapiens; assay: Selectivity ratio of IC50 for inhibition of PI3Kbeta (unknown origin) to IC50 for inhibition of PI3Kgamma (unknown origin)
[11] = Metabolic stability in rat hepatocyte assessed as intrinsic clearance per 10^8 cells at 0.5 uM by LC-MS/MS analysis; assay type: ADME, cell-based; settings: hepatocytes
[12] = target: T1, Phosphatidylinositol 4,5-bisphosphate 3-kinase catalytic subunit gamma isoform; assay: Inhibition of PI3Kgamma in SDF-1alpha stimulated human whole blood assessed as reduction in phospho-AKT kinase activity preincubated for 1 hr followed by SDF-1alpha stimulation and measured after 2 mins by flow cytometric analysis; assay type: tissue-based
[13] = target: T3, hERG (Homo sapiens, UniProt Q12809); assay: Inhibition of human ERG at 10 uM by patch clamp assay relative to control; assay type: toxicity
T3 sequence (Q12809 whole entry): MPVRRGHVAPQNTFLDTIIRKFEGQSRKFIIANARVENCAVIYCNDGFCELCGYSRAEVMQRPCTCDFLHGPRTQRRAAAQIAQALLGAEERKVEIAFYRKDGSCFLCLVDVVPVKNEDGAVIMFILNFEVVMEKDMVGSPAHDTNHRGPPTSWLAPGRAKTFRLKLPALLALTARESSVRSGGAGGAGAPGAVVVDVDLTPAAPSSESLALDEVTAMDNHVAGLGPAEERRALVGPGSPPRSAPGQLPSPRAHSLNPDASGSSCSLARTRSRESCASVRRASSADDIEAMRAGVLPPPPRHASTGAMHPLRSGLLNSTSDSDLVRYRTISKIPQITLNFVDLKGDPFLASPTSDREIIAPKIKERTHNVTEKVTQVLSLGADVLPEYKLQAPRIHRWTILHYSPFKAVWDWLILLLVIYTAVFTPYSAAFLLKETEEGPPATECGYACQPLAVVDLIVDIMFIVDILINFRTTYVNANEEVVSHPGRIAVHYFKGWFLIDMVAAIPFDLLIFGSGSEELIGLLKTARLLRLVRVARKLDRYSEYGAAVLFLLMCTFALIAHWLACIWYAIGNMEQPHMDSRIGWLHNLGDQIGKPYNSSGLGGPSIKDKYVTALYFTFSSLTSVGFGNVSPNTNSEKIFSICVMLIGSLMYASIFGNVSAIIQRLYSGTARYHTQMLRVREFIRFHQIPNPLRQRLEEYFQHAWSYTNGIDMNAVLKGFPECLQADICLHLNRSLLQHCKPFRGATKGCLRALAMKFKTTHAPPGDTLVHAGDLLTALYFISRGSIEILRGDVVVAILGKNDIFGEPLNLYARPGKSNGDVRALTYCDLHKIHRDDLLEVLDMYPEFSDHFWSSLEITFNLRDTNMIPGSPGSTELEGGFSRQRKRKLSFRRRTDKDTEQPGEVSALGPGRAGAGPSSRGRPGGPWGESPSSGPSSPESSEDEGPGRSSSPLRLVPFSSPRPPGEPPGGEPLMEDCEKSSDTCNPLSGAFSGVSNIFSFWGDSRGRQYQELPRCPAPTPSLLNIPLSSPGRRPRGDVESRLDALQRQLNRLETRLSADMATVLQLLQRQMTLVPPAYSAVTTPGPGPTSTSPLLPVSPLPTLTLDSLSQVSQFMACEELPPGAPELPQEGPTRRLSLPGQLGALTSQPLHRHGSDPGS

[14] = species: Homo sapiens; assay: Selectivity ratio of IC50 for inhibition of PI3Kdelta (unknown origin) to IC50 for inhibition of PI3Kgamma (unknown origin)
[15] = target: T3, hERG; assay: Inhibition of human ERG at 3 uM by patch clamp assay relative to control; assay type: toxicity

Phosphatidylinositol 4,5-bisphosphate 3-kinase catalytic subunit beta isoform, sequence (P42338 whole entry, canonical isoform): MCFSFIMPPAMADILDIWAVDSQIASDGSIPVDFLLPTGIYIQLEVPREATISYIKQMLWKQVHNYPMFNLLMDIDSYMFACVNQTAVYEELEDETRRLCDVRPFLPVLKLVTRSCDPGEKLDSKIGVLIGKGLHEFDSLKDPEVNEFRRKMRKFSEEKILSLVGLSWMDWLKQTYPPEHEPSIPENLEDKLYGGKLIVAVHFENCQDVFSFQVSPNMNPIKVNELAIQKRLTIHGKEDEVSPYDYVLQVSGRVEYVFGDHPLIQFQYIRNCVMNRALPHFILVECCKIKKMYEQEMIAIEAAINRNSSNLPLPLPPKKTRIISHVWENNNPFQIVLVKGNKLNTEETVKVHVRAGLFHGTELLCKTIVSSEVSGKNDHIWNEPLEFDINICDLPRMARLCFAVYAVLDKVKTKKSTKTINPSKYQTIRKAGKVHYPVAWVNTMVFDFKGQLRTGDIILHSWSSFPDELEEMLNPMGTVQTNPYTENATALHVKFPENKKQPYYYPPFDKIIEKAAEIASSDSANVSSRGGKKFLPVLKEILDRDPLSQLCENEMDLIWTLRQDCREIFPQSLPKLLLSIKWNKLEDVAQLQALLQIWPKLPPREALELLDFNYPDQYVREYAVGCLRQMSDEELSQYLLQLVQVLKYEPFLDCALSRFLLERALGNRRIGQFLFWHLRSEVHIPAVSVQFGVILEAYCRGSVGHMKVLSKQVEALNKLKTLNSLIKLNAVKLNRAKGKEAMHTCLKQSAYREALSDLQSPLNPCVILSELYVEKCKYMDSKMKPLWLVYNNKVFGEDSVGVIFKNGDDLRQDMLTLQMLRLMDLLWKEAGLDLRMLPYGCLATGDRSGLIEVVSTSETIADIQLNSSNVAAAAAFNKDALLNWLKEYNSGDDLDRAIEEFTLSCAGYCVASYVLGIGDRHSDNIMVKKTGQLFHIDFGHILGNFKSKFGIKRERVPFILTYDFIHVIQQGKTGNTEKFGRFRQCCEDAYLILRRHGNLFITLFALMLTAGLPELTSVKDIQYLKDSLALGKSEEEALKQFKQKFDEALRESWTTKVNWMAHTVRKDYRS

Row | SMILES | pIC50 [1] | Ratio IC50 [2] | CLH [3] | pIC50 [4] | pIC50 [5] | hepatocyte CLint at 0.5 µM [6] | inhibition at 30 min, 10 µM [7] | pIC50 [8] | pIC50 [9] | Ratio IC50 [10] | hepatocyte intrinsic clearance [11] | pIC50 [12] | Ratio IC50 [14] | inhibition at 10 µM [13] | inhibition at 3 µM [15]
1 | C[C@@H](C1CC1)N1Cc2cc(-c3ccn4nc(N)c(C(=O)N[C@@H](CO)C5CC5)c4n3)cc(NS(C)(=O)=O)c2C1=O |  | 1470 |  | 7.48 | 6.00 | 4.09 µL/min/1e6 cells | 35% | 5.92 | 9.10 |  | < 1.2 µL/min | 6.59 |  |  | 
2 | C[C@H](N1Cc2cc(-c3ccn4nc(N)c(C(=O)N[C@H]5CC[C@@](C)(O)CC5)c4n3)cc(NS(C)(=O)=O)c2C1=O)C(F)(F)F |  | 61 |  | 7.51 | 6.84 | 2.44 µL/min/1e6 cells |  | 6.71 | 8.49 |  | 3.38 µL/min | 6.10 | 46 |  | 
3 | C[C@H](N1Cc2cc(-c3ccn4nc(N)c(C(=O)N[C@@H](CO)C5CC5)c4n3)cc(NS(C)(=O)=O)c2C1=O)C(F)(F)F |  | 474 |  | 7.14 | 6.08 | 6.31 µL/min/1e6 cells |  | 5.79 | 8.46 |  | 2.48 µL/min | 5.89 | 238 |  | 
4 | C[C@@H](C1CC1)N1Cc2cc(-c3ccn4nc(N)c(C(=O)N[C@H]5CC[C@](C)(O)CC5)c4n3)cc(NS(C)(=O)=O)c2C1=O | 5.12 | 362 | 30 mL/min/kg | 7.66 | 6.57 | 3.39 µL/min/1e6 cells | 12% | 6.49 | 9.05 | 8410 | 8.24 µL/min | 6.38 |  |  | 
5 | C[C@H](N1Cc2cc(-c3ccn4nc(N)c(C(=O)N[C@@H](CO)C5CC5)c4n3)cc(C3CC3)c2C1=O)C(F)(F)F |  | > 3970 |  | 7.10 | 5.40 | 13.3 µL/min/1e6 cells |  | < 5.00 | 8.60 |  | 1.69 µL/min | 5.89 | 1580 |  | 

Further compounds by rising pIC50 [4], results first:

Row | pIC50 [1] | Ratio IC50 [2] | CLH [3] | pIC50 [4] | pIC50 [5] | hepatocyte CLint at 0.5 µM [6] | inhibition at 30 min, 10 µM [7] | pIC50 [8] | pIC50 [9] | Ratio IC50 [10] | hepatocyte intrinsic clearance [11] | pIC50 [12] | Ratio IC50 [14] | SMILES | inhibition at 10 µM [13] | inhibition at 3 µM [15]
6 |  | > 3140 |  | 7.08 | 5.33 | 3.18 µL/min/1e6 cells |  | < 5.00 | 8.51 |  | 2.98 µL/min | 6.22 | 1460 | C[C@H](N1Cc2cc(-c3ccn4nc(N)c(C(=O)N[C@@H](CO)C5CC5)c4n3)cc(Cl)c2C1=O)C(F)(F)F |  | 
7 | 5.07 | 733 | 21.7 mL/min/kg | 7.14 | 5.75 | 4.05 µL/min/1e6 cells | 6% | 5.69 | 8.55 | 3040 | < 1.2 µL/min | 6.12 |  | C[C@@H](C1CC1)N1Cc2cc(-c3ccn4nc(N)c(C(=O)N[C@@H](CO)C5CC5)c4n3)cc(OC(F)(F)F)c2C1=O |  | 
8 |  | 385 |  | 7.17 | 6.38 | 7.17 µL/min/1e6 cells |  | 5.88 | 8.47 |  | 8.28 µL/min | 6.22 | 122 | C[C@H](N1Cc2cc(-c3ccn4nc(N)c(C(=O)N[C@@H](CO)C5CC5)c4n3)cc(OC(F)F)c2C1=O)C(F)(F)F |  | 
9 | 5.01 | 1880 | 23.3 mL/min/kg | 7.28 | 5.97 | 1.9 µL/min/1e6 cells | 17% | 5.39 | 8.68 | 4560 | 11 µL/min | 6.68 |  | C[C@@H](C1CC1)N1Cc2cc(-c3ccn4nc(N)c(C(=O)N[C@H]5CC[C@](O)(C(F)(F)F)CC5)c4n3)cc(NS(C)(=O)=O)c2C1=O | 68% | 45%
10 | 4.53 | 611 | 15 mL/min/kg | 7.32 | 5.51 | 4.35 µL/min/1e6 cells | 18% | 5.72 | 8.51 | 9400 | 8.42 µL/min | 6.29 |  | C[C@@H](C1CC1)N1Cc2cc(-c3ccn4nc(N)c(C(=O)N[C@@H](CO)C5CC5)c4n3)cc(OC(F)F)c2C1=O | 21% | 

Source: ChEMBL document CHEMBL5154644, “Design, Synthesis, and Structure-Activity Relationship Optimization of Pyrazolopyrimidine Amide Inhibitors of Phosphoinositide 3-Kinase γ (PI3Kγ)” (J Med Chem, 2022)
